# US20160213633A1, “METHOD OF INDUCING ANTI-GLATIRAMER ACETATE ANTIBODY RESPONSE” (Teva Pharmaceutical Industries, Ltd., priority 2015, published 2016)
# Where two headings read alike, the source gives them in different places.
# Columns and labels:
# anti-GA IgG antibodies = system: anti-GA IgG antibodies
# Experimental: Sample positivity of each screen positive sample of each patient was confirmed in further testing by comparison to the confirmatory cut-point.
# Unspiked and spiked samples were tested according to the method but only in 1/500 dilution.
# The confirmatory cut-point factor is calculated to set the false positive rate at 1%. Reported value (RV) were the unspiked sample avg. ODA and the spiked sample avg. OD. RV were obtained from 50 naïve individuals, each measured 4 times over 2 days by 2 analysts.
# Percent RA inhibition was calculated according to the following equation:
# Percent inhibition=100×(1−(RA of spiked)/(RA of unspiked))
# [1] = system: anti-GA specific IgG antibodies; details: for average anti-GA IgG response (Screening RA %): GA treatment group, 40 mg sc three times a week, 1/500 dilution
# Experimental: The screening results of the 1/500 dilution are presented as RA %.
# Analysis was performed using ELISA.
# Each plate should include the following samples: • System suitability Test (SST)—wells coated with purified human IgG. • SST Blank—wells coated with the blocking buffer only (w/o hIgG and human serum sample). […] To be subtracted from the NHS & PHS controls and from the human tested serum samples. • Sample 1-Sample 13—different tested serum samples. Each sample applied in two dilutions ( 1/500 and 1/1000)
# All tested human serum samples of different time points from the same individual should be tested (in triplicates), if possible, in the same plate to allow comparison.
# Prepare a 1.0 ug/ml dilution of hIgG coating antibody and coat the plate at 100 ul/well.
# For washing, empty plate and tap out residual liquid, fill each well with 300 ul washing buffer and then invert plate to empty, tap out residual liquid onto paper towel.
# For blocking, add 300 ul/well of blocking buffer to each well, seal the plate and incubate at room temperature for 1 hour, and wash the plates three times.
# For sample loading, add 100 ul diluted test samples and/or control sample and/or sample buffer to each well. Seal the plate and incubate for 2 hours at room temperature, empty plate, tap out residual liquid and wash three times.
# For detection antibody, prepare 1:4000 dilution of the biotinylated anti-hIgG detection antibody by diluting 2.5 ul biotinylated anti-hIgG antibody to 10 ml of blocking buffer. Prepare 10 ml biotinylated anti-human IgG detection antibody solution per plate and add 100 ul of the prepared detection antibodies to each well. Seal the plate and incubate for 1 hour at room temperature. Then empty plate, tap out residual liquid and wash five times.
# For streptavidin conjugated horseradish peroxidase (HRP), prepare working dilution of the streptavidin conjugated HRP in blocking buffer. Then add 100 ul/well of the prepared streptavidin conjugated HRP solution, following shaking the plate for a few seconds. Then incubate the plate for 1 hour at room temperature in the dark, following washing five times.
# For enzymatic reaction, TMB (3,3,5,5-tetramethylbenzidine peroxidase) is used. Mix equal volumes of TMB Peroxidase Substrate (Part 1) and Peroxidase Substrate Solution B in a clean glass container immediately prior to use. Dispense 100 ul of TMB solution into each well and incubate the plate for 15-30 minutes in the dark at 37° C. Stop the reaction with 100 ul stop solution per well (1N sulphuric acid) and shake the plate for a few seconds. Read the absorbance (ABS) of each well at 450 nm.
# For blank subtraction, subtract the calculated average absorbance (ABS) of SST blank from average (AVG) ABS value of the SST. Subtract the calculated AVG ABS of blank from AVG ABS value of each test sample including PHS and NHS control samples. All data points that fall below 0.000 are set equal to 0.000.
# To overcome plate-to-plate variability, the results are normalized by dividing the absorbance (ABS) of each test sample (including the controls) with that of the SST. This value is the Relative Absorbance (RA) ratio and is multiplied by 100 expressed in percent. These values are the reported response values of the test. The RA value is calculated according to the following equation: […]
# The RA values of the normal human serum samples obtained from untreated individuals are used to calculate a cut-point value of the test. The cut-point value is used to distinguish between negative and positive human serum samples. In case that the calculated cut point value of the study is lower than the RA of the detection limit (2*Blank) of the study, the cut point is calculated as follows: […]
# The results of the other dilution ( 1/1000) will be reported for monitoring, to allow semi quantitative comparison of the tested serum defined as positive.
# All samples of each patient were tested on the same plate, whenever it was possible.
substance,measurement,setting,value
"L-glutamic acid polymer with L-alanine, L-lysine and L-tyrosine, acetate (salt) [GA]",Inhibition (%),anti-GA IgG antibodies; Baseline visit; one line per patient,68.2%
same,Inhibition (%),"anti-GA IgG antibodies; Baseline; confirmation test, spiking with GA; each line one patient",65.5%
same,Inhibition (%),anti-GA IgG antibodies; Month 1; confirmation test,63.8%
same,Confirmed Positivity (Yes/No),anti-GA IgG antibodies; Month 1; individual patient,YES
same,Inhibition (%),"anti-GA IgG antibodies; Month 1 visit, individual patient",18.7%
same,Inhibition (%),anti-GA IgG antibodies; Month 1 visit; individual patient,63.2%
same,Confirmed Positivity (Yes/No),anti-GA IgG antibodies; Month 3; individual patient,YES
same,Inhibition (%),"anti-GA IgG antibodies; Month 3 visit, individual patient",47.0%
same,Inhibition (%),anti-GA IgG antibodies; Month 6; confirmation test,61.1%
same,Confirmed Positivity (Yes/No),anti-GA IgG antibodies; Month 6; individual patient,YES
same,Confirmed Positivity (Yes/No),"anti-GA IgG antibodies; Month 6 visit, individual patient",YES
same,Inhibition (%),anti-GA IgG antibodies; Month 9; confirmation test,56.8%
same,Confirmed Positivity (Yes/No),anti-GA IgG antibodies; Month 9; individual patient,YES
same,Confirmed Positivity (Yes/No),"anti-GA IgG antibodies; Month 9 visit, individual patient",YES
same,Inhibition (%),anti-GA IgG antibodies; Month 12; confirmation test,58.5%
same,Confirmed Positivity (Yes/No),anti-GA IgG antibodies; Month 12; individual patient,YES
same,Confirmed Positivity (Yes/No),"anti-GA IgG antibodies; Month 12 visit, individual patient",YES
same,Inhibition (%),anti-GA IgG antibodies; Month 18; confirmation test,60.2%
same,Confirmed Positivity (Yes/No),anti-GA IgG antibodies; Month 18; individual patient,YES
same,Confirmed Positivity (Yes/No),"anti-GA IgG antibodies; Month 18 visit, individual patient",YES
same,Inhibition (%),anti-GA IgG antibodies; Month 24; confirmation test,66.8%
same,Inhibition (%),anti-GA IgG antibodies; Month 24; confirmation test; individual patient,66.7%
same,Confirmed Positivity (Yes/No),anti-GA IgG antibodies; Month 24; individual patient,YES
same,Confirmed Positivity (Yes/No),"anti-GA IgG antibodies; Month 24 visit, individual patient",YES
same,Inhibition (%),"anti-GA IgG antibodies; confirmation test, individual patient, Month 1",63.3%
same,Inhibition (%),"anti-GA IgG antibodies; confirmation test, individual patient, Month 18",59.5%
same,Inhibition (%),"anti-GA IgG antibodies; confirmation test, individual patient, Month 24",58.2%
same,presence of anti-GA IgG Abs in tested patients,anti-GA IgG antibodies; every tested patient (262 patients),confirmed positive
same,positivity of non-baseline samples verified in the confirmatory test,anti-GA IgG antibodies; screen positive non-baseline samples; confirmatory cut-point […],99.9%
same,Sample Positivity,"[1]; Baseline visit, RA % vs cut-point 1.4, one line per patient",Negative
same,Sample Positivity,"[1]; Baseline, cut-point RA % of 1.4, individual patient",Negative
same,average anti-GA IgG response (Screening RA %),[1]; Baseline,0.4568 RA %
same,average anti-GA IgG response (Screening RA %),[1]; Month 1,34.75 RA %
same,average anti-GA IgG response (Screening RA %),[1]; Month 3,67.72 RA %
same,average anti-GA IgG response (Screening RA %),[1]; Month 6,39.69 RA %
same,average anti-GA IgG response (Screening RA %),[1]; Month 9,30.61 RA %
same,average anti-GA IgG response (Screening RA %),[1]; Month 12,28.94 RA %
same,average anti-GA IgG response (Screening RA %),[1]; Month 18,24.9 RA %
same,average anti-GA IgG response (Screening RA %),[1]; Month 24,23.36 RA %
same,Sample Positivity,"[1]; Month 1, RA % vs cut-point 1.4, one line per patient",POSITIVE
same,Sample Positivity,"[1]; Month 2 (so in the source), RA % vs cut-point 1.4, patient 537414",POSITIVE
same,Sample Positivity,"[1]; Month 3, RA % vs cut-point 1.4, one line per patient",POSITIVE
same,Sample Positivity,"[1]; Month 3, cut-point RA % of 1.4, individual patient",POSITIVE
same,Sample Positivity,"[1]; Month 6, RA % vs cut-point 1.4, one line per patient",POSITIVE
same,Sample Positivity,"[1]; Month 6, cut-point RA % of 1.4, individual patient",POSITIVE
same,Sample Positivity,"[1]; Month 12, RA % vs cut-point 1.4, one line per patient",POSITIVE
same,antibody level versus baseline,[1]; about 12 months after the initial 40 mg/ml dose,higher than baseline
same,total anti-GA IgG levels,[1]; by month 6 of the treatment,decreased
same,rate of increase of antibody level,[1]; first month compared to after the first month to the third month,greater rate during the first month
same,non-baseline samples higher than the cut-point value (RA % of 1.4),"[1]; human, in vivo",96.2%
same,antibody level after the peak versus baseline,[1]; month 24,did not reach the baseline level
